Measured values: Sander's compilation of Henry's law constants (doi:10.1063/1.555654)

Assay: Henry solubility constant Hcp at 298.15 K (mol/(m3 Pa))
Conditions: reference: Mackay and Shiu (1981)

| Structure (SMILES) | Henry solubility constant Hcp |
| --- | --- |
| c1ccc(-c2ccccc2)cc1 [biphenyl] | 0.033 |
| Cc1cccc2ccccc12 [1-methylnaphthalene] | 0.038 |
| Clc1cccc2ccccc12 [1-chloronaphthalene] | 0.0028 |
| Clc1cccc(Cl)c1Cl [1,2,3-trichlorobenzene] | 0.0079 |
| c1cc2c3c(cccc3c1)CC2 [acenaphthene] | 0.0064 |
| Clc1ccc(Cl)cc1 [1,4-dichlorobenzene] | 0.0042 |
| Clc1ccc2ccccc2c1 [2-chloronaphthalene] | 0.031 |
| Brc1ccccc1 [bromobenzene] | 0.004 |
| Clc1cc(Cl)c(Cl)c(Cl)c1 [1,2,3,5-tetrachlorobenzene] | 0.0063 |
| c1ccc2c(c1)Cc1ccccc1-2 [2,3-benzindene] | 0.099 |
| c1ccc2cc3ccccc3cc2c1 [anthracene] | 0.014 |
| Clc1ccccc1 [chlorobenzene] | 0.0032 |
| c1ccc2c(c1)ccc1ccccc12 [phenanthrene] | 0.27 |
